One assay has as its target Carbonic anhydrase 12 (Homo sapiens, UniProt O43570). Put plainly: Inhibition of human recombinant transmembrane carbonic anhydrase 12 after 6 hrs by stopped flow CO2 hydration method.
For a further assay, the target named is Carbonic anhydrase 2 (Homo sapiens, UniProt P00918). Put plainly: Inhibition of human recombinant cytosolic carbonic anhydrase 2 after 6 hrs by stopped flow CO2 hydration method.
For a further assay, the target named is Carbonic anhydrase 9 (Homo sapiens, UniProt Q16790).
Another assay addresses Carbonic anhydrase 1 (Homo sapiens, UniProt P00915). Put plainly: Inhibition of human recombinant cytosolic carbonic anhydrase 1 after 6 hrs by stopped flow CO2 hydration method.

12 compounds from ChEMBL document CHEMBL3112455, “Synthesis of 6-tetrazolyl-substituted sulfocoumarins acting as highly potent and selective inhibitors of the tumor-associated carbonic anhydrase isoforms IX and XII” (Bioorg Med Chem, 2014) can be followed below.

SMILES strings stand for the structures.

Sequence of Carbonic anhydrase 1 (P00915 whole entry): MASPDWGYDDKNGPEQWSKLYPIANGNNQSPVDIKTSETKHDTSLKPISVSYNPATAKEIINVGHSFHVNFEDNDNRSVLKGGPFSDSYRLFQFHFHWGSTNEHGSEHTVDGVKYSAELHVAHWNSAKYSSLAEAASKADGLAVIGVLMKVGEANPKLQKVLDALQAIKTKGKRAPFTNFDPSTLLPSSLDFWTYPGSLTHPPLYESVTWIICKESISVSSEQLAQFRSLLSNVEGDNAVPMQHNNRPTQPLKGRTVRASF
Sequence of Carbonic anhydrase 12 (O43570 whole entry): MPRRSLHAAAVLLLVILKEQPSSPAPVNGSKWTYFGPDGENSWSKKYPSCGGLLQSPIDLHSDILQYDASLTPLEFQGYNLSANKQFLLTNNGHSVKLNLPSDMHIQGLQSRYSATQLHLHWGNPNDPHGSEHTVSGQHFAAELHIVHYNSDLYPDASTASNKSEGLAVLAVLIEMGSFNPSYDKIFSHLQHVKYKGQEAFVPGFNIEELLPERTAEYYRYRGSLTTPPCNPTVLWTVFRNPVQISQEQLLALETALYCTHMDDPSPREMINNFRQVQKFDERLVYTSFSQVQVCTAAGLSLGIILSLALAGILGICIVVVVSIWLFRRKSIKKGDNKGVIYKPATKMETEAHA
Description for Carbonic anhydrase 9: Inhibition of human recombinant transmembrane carbonic anhydrase 9 after 6 hrs by stopped flow CO2 hydration method

In the case of `O=S1(=O)C=Cc2cc(-c3nnnn3-c3ccc(F)c(Cl)c3)ccc2O1`, the Ki at Carbonic anhydrase 12 is 0.0054 µM; on Carbonic anhydrase 2, more than 10 µM; at Carbonic anhydrase 9, 0.0069 µM; at Carbonic anhydrase 1, more than 10 µM.

Take `O=S1(=O)C=Cc2cc(-c3nnnn3-c3cccc4ccccc34)ccc2O1`: the Ki on Carbonic anhydrase 2 and at Carbonic anhydrase 1 was more than 10 µM in each case.

Consider `O=S1(=O)C=Cc2cc(-n3cnnn3)ccc2O1`, for which the Ki on Carbonic anhydrase 2 and at Carbonic anhydrase 1 was more than 10 µM in each case.

In the case of `COc1ccc(-n2nnnc2-c2ccc3c(c2)C=CS(=O)(=O)O3)cc1`, the results for the Ki on Carbonic anhydrase 2, at Carbonic anhydrase 9 and on Carbonic anhydrase 1 were more than 10 µM, 0.0087 µM and more than 10 µM, respectively.

Regarding `O=S1(=O)C=Cc2cc(-c3nnnn3-c3ccc(C(F)(F)F)cc3)ccc2O1`, the Ki was more than 10 µM at Carbonic anhydrase 2, 0.0393 µM at Carbonic anhydrase 9 and more than 10 µM on Carbonic anhydrase 1.

As for `O=S1(=O)C=Cc2cc(-c3nnnn3-c3ccc(Cl)c(Cl)c3)ccc2O1`, the figures for the Ki at Carbonic anhydrase 2, on Carbonic anhydrase 9 and at Carbonic anhydrase 1 were more than 10 µM, 0.0082 µM and more than 10 µM, respectively.

Take `Cc1nnnn1-c1ccc2c(c1)C=CS(=O)(=O)O2`: the Ki at Carbonic anhydrase 2 and on Carbonic anhydrase 1 was more than 10 µM each time.

Turning to `Cc1cccc(-n2nnnc2-c2ccc3c(c2)C=CS(=O)(=O)O3)c1`, the results for the Ki at Carbonic anhydrase 2, on Carbonic anhydrase 9 and on Carbonic anhydrase 1 were more than 10 µM, 0.0271 µM and more than 10 µM, respectively.

On to `O=S1(=O)C=Cc2cc(-c3nnnn3-c3ccccc3)ccc2O1`, for which the inhibitory constant (Ki) on Carbonic anhydrase 2 and at Carbonic anhydrase 1 was more than 10 µM each time.

Regarding `Cc1ccc(-n2nnnc2-c2ccc3c(c2)C=CS(=O)(=O)O3)cc1`, the Ki is more than 10 µM at Carbonic anhydrase 2, 0.0091 µM on Carbonic anhydrase 9 and more than 10 µM at Carbonic anhydrase 1.

With `O=S1(=O)C=Cc2cc(-c3nnnn3-c3cccc(Br)c3)ccc2O1`, the Ki on Carbonic anhydrase 2 is more than 10 µM; at Carbonic anhydrase 9, 0.0568 µM; at Carbonic anhydrase 1 it was more than 10 µM.

Take `O=S1(=O)C=Cc2cc(-c3nnnn3-c3ccc(Cl)cc3)ccc2O1`: the Ki is more than 10 µM on Carbonic anhydrase 2, 0.0088 µM on Carbonic anhydrase 9 and more than 10 µM at Carbonic anhydrase 1.
